Experiments:
[1] = system: Friend leukemia virus; test: Inhibitory effect on the induction of splenomegaly by Friend leukemia virus in mice; format: in vivo, mouse (male C3H/HeN); settings: for inhibition of splenomegaly in mice (in words): Friend leukemia virus; for Spleen weight / Inhibition: day 14; for Inhibition: percent inhibition of infection from spleen weight
Protocol: Male C3H/HeN mice (5 weeks old) were intraperitoneally inoculated with 3.1 × 10^1 MID50 /mouse of Friend leukemia virus (in 0.2 ml) and then, after this infection procedure, the active ingredient [compound (I) or compound (II)] of the present invention was administered at a specified dose in the form of a solution in sterile physiological saline by the route specified below (Experiment 1 or 2). On day 14 after infection, the mice were sacrificed by exsanguination and the spleen weight (in mg) was measured for evaluating the inhibitory effect of the compound (I) and (II) on the induction of splenomegaly. In each experiment, the control group consisted of mice given no active ingredient after infection with Friend leukemia virus. The percent inhibition of infection was calculated as follows: [formula] The compound (I) was intravenously administered 4 hours after infection (day 0) and then twice daily on days 1 to 4 and days 7 to 11 (19 times in total). The compound (II) was orally administered 1 hour after infection and then according to the same schedule as in Experiment 1. The compound (II) used was in the α form, namely the compound (II'). Friend leukemia virus used in the above test is known to be a lymphotropic retrovirous, like HIV. Since the extent of splenomegaly in mice induced by said virus is proportional to the proliferation of said virus, the inhibitory effect of an agent on the proliferation of Friend leukemia virus can be estimated by assaying its inhibitory effect on the splenomegaly in mice.

[2] = system: cytopathic effect of HIV: LAV-1-infected CEM cells / Molt4 (clone 8) cells; test: Inhibitory effect on the cytopathic effect of HIV (syncytium/giant cell formation); format: cell-based, human immunodeficiency virus (LAV-1)
Protocol: The inhibitory effect of the compound (I) on the cytopathic effect (syncytium formation) by HIV infection on T lymphocytes was evaluated in the following manner.
(1) CEM cells infected with LAV-1 were washed twice with RPMI 1640 medium and a cell suspension (1 × 10^6 cells/ml) was prepared using the same medium. The suspension was distributed in 100-μl portions into culture tubes (16 × 125 mm). Complete medium^*1 containing the compound (I) in several specified concentrations was added to the culture tubes and incubation was performed in the presence of 5% carbon dioxide a 37° C. for 3 days.
The LAV-1-infected CEM cells thus cultured were washed twice with RPMI 1640 medium and then adjusted to 4 × 10^5 cells/ml with the complete medium.
[*1: RPMI 1640 medium supplemented with 20% fetal calf serum, 2.5 mM glutamine, kanamycin (100 μg/ml) and penicillin G (100 units/ml)]
(2) Molt4 (clone 8) cells were washed twice with RPMI 1640 medium and then adjusted to 2 × 10^6 cells/ml with the complete medium.
(3) The LAV-1-infected CEM cell suspension in complete medium prepared in (1) and the Molt4 (clone 8) cell suspension in complete medium prepared in (2) were respectively distributed in 50-μl portions into 96 well flat bottomed tissue culture plate, followed by further addition of 50 μl of each solution of the compound (I) in complete medium to each well, which was, in advance, prepared to give a final concentration of compound (I) of 100 μg/ml, 50 μg/ml, 20 μg/ml or 10 μg/ml (the final volume in each well being 150 μl).
(4) The above tissue culture plate was incubated at 37° C. in the presence of 5% carbon dioxide for 16 hours and then the giant cells resulting from cytopathic alteration of Molt4 (clone 8) cells were counted within the visual field of a microscope (magnification × 400).
The compound (II) was also evaluated for the same inhibitory effect (the α isomer, i.e. the compound (II'), was selected as a representative of the compound (II)).

[3] = system: α-glucosidase; settings: stated without data; cited from earlier work
[4] = Acute toxicity testing in mice; format: in vivo, mouse (ddY, female)
Protocol: The compound (I) was administered to mice (ddY strain, female, 5 weeks old) at a dose of 1 g per kg body weight by intravenous injection.

[5] = system: Friend leukemia virus; test: Inhibitory effect on the induction of splenomegaly by Friend leukemia virus in mice; format: in vivo, mouse (male C3H/HeN); settings: combination with azidothymidine (AZT); no data given
[6] = system: immunosuppressive factors; settings: stated without data; cited from earlier work
[7] = system: Type II collagen-induced arthritis; test: Type II collagen-induced arthritis in rats; format: in vivo, rat (female Lewis); settings: oral, means ± SEM
Protocol: (2R, 3S, 4R, 5R)-3,4-dihydroxy-5-hydroxymethyl-2-pyrrolidinesufonic acid (compound (II'))
Inbred 7-week-old female Lewis rats were handled under specific pathogen-free conditions and acclimated to the new environment for a week before use.
Type II bovine collagen was dissolved at 4° C. in 0.01M acetic acid at a concentration of 2 mg/ml. The solution was emulsified in an equal volume of incomplete Freund's adjuvant. Rats were anesthetized with sodium pentobarbital (30 mg/kg, i.p.) and the backs of rats were shaved. Under anesthesia, each rat was immunized with 0.8 ml of the cold emulsion by several intradermal injections on the depilated back and one or two injections into the base of the tail.
The test compound was dissolved in distilled water and administered orally at various doses in 5 ml/kg. From the day of immunization, the test compound or vehicle was administered once a day for 2 weeks.
The extent of arthritis was expressed as the increase in paw volume of each rat. The volume of both hind legs below the knee joint was measured with a plethysmometer. The rats were immunized on day 0 and the paw volume was measured on day 12 and 14. Mean increases in the paw volume of each group was calculated and the result was expressed as means ± SEM. Each group consisted of 10 rats.

[8] = system: inflammation; test: Anti-inflammatory activity (general statement); settings: stated in words
[9] = Stability and hygroscopicity; format: physicochemical; settings: compared with the pyrroline compound (I)

## OC[C@H]1N=C[C@@H](O)[C@@H]1O [Compound (I), (3R, 4R, 5R)-3,4-dihydroxy-5-hydroxymethyl-1-pyrroline]
[1]
  inhibition of splenomegaly in mice (in words): can inhibit such splenomegally in mice
[1]; intravenous, 20 mg/kg/administration, 19 times, control 1149 ± 220, normal 92 ± 3 mg, mean of 10 mice
  Spleen weight: 840 ± 421 mg
[1]; intravenous, 20 mg/kg/administration, 19 times
  Inhibition: 29%
[1]; intravenous, 80 mg/kg/administration, 19 times, control 1149 ± 220, normal 92 ± 3 mg, mean of 10 mice
  Spleen weight: 667 ± 241 mg
[1]; intravenous, 80 mg/kg/administration, 19 times
  Inhibition: 46%
[2]; compound (I) 10 μg/ml, 16 h, control (0 μg/ml) 260.5, mean of two countings
  Number of giant cells: 246.5
[2]; compound (I) 20 μg/ml, 16 h, control (0 μg/ml) 260.5, mean of two countings
  Number of giant cells: 147.5
[2]; compound (I) 50 μg/ml, 16 h, control (0 μg/ml) 260.5, mean of two countings
  Number of giant cells: 44.5
[2]; compound (I) 100 μg/ml, 16 h, control (0 μg/ml) 260.5, mean of two countings
  Number of giant cells: 9.5
[3]
  α-glucosidase inhibiting activity: α-glucosidase inhibiting activity
[4]; 1 g per kg body weight, intravenous injection
  body weight: body weight gains
[4]; mouse, in vivo, iv
  survival: The mice survived
[5]
  potentiation of azidothymidine (AZT) in inhibiting splenomegaly in mice: can potentiate azidothymidine (AZT) in inhibiting such splenomegaly in mice
[6]
  activity against immunosuppressive factors: activity against immunosuppressive factors

## O=S(=O)(O)[C@H]1N[C@H](CO)[C@@H](O)[C@@H]1O [Compound (II'), (2R, 3S, 4R, 5R)-3,4-dihydroxy-5-hydroxymethyl-2-pyrrolidinesulfonic acid]
[1]; oral, 10 mg/kg/administration, first 1 hour after infection, control 1073 ± 26, normal 79 ± 2 mg, mean of 8 mice
  Spleen weight: 875 ± 71 mg
[1]; oral, 10 mg/kg/administration, first 1 hour after infection
  Inhibition: 20%
[2]; compound (II') 1 μg/ml, control (0 μg/ml) 173.0 ± 2.0, mean ± SD
  Number of giant cells: 119.5 ± 16.5
[2]; compound (II') 3 μg/ml, control (0 μg/ml) 173.0 ± 2.0, mean ± SD
  Number of giant cells: 106.0 ± 19
[2]; compound (II') 10 μg/ml, control (0 μg/ml) 173.0 ± 2.0, mean ± SD
  Number of giant cells: 89.0 ± 10
[2]; compound (II') 30 μg/ml, control (0 μg/ml) 173.0 ± 2.0, mean ± SD
  Number of giant cells: 53.5 ± 8.5
[2]; compound (II') 100 μg/ml, control (0 μg/ml) 173.0 ± 2.0, mean ± SD
  Number of giant cells: 26.5 ± 3.5
[7]; 10 mg/kg once a day, 12 day, control 0.29 ± 0.13, normal 0.03 ± 0.07
  Paw volume change: 0.16 ± 0.15 mL
[7]; 10 mg/kg once a day, 14 day, control 0.41 ± 0.24, normal 0.05 ± 0.03
  Paw volume change: 0.27 ± 0.21 mL
[7]; 32 mg/kg once a day, 12 day, control 0.29 ± 0.13, normal 0.03 ± 0.07
  Paw volume change: 0.13 ± 0.10 mL
[7]; 32 mg/kg once a day, 14 day, control 0.41 ± 0.24, normal 0.05 ± 0.03
  Paw volume change: 0.19 ± 0.22 mL
[7]; 100 mg/kg once a day, 12 day, control 0.29 ± 0.13, normal 0.03 ± 0.07
  Paw volume change: 0.08 ± 0.11 mL
[7]; 100 mg/kg once a day, 14 day, control 0.41 ± 0.24, normal 0.05 ± 0.03
  Paw volume change: 0.06 ± 0.04 mL

## O=S(=O)(O)C1N[C@H](CO)[C@@H](O)[C@@H]1O (some centres unmarked) [(II)]
[1]
  inhibition of splenomegaly in mice (in words): can inhibit such splenomegally in mice
[5]
  potentiation of azidothymidine (AZT) in inhibiting splenomegaly in mice: can potentiate azidothymidine (AZT) in inhibiting such splenomegaly in mice
[8]
  anti-inflammatory activity: has anti-inflammatory activity
[9]
  hygroscopicity: less hygroscopic than the pyrroline compound (I)
  stability: very stable
